For this experiment, the system named is diabetic GK rats. As to the kind of experiment: Modulation of glucose levels (glycaemia and oral glucose tolerance test) in diabetic GK rats. To be noted: for % variation vs control (glycaemia after 4 days of treatment) / Glycaemia after 4 days of treatment: PO bid for 4 days, alone or combined; for Glycaemia before treatment: baseline before treatment. Format: in vivo, rat. The procedure:
Biological Test: Modulation of Glucose Levels with the Combinations of the Invention with Insulin Sensitisers
The capacity of the compounds of the invention in combination with insulin-sensitising antidiabetic compounds to modify the blood glucose levels is evaluated in vivo in diabetic GK rats.
Alone or in combination, the antidiabetic agents are administered twice a day (bid) to the GK rats for 4 days. The oral glucose tolerance test (OGTT) is performed after the last day of treatment.
OGTT is performed in the morning after 3 hours of fasting by oral administration of a glucose charge of 2 g/kg of body mass. The blood samples are collected from the tail vein at 0; 10; 20; 30; 45; 60; 90 and 120 minutes to determine the glucose levels.
The two compounds were administered alone and in combination. The doses used for the hydrochloride salt of (+)-2-amino-3,6-dihydro-4-dimethylamino-6-methyl-1,3,5-triazine were 50 and 100 mg/kg PO twice daily for 4 days.

Setting [1] is: GK rats, triazine salt 100 mg/kg, rosiglitazone 5 mg/kg.

Where a name gives a salt, the structure may show the parent alone.

Regarding `CC1N=C(N)NC(N(C)C)=N1` (single isomer, unassigned; (+)) [(+)-2-amino-3,6-dihydro-4-dimethylamino-6-methyl-1,3,5-triazine hydrochloride], the “fasted plasmatic glucose level” value (GK rats, 4 days, rosiglitazone 5 mg/kg, triazine salt 100 mg/kg) was “induced a decrease”. For the same molecule, the “glucose tolerance, compared with rosiglitazone” value (GK rats, OGTT, triazine salt 100 mg/kg vs rosiglitazone 5 mg/kg) was “better glucose tolerance”. Under setting [1], the “% variation vs control (glycaemia after 4 days of treatment)” value was −16% and the “Glycaemia after 4 days of treatment” value is 11.01 ± 0.37 mmol/L. The Glycaemia before treatment (GK rats) stood at 12.95 ± 0.41 mmol/L. For the same molecule, for the setting “OGTT after 4 days of treatment PO bid, triazine salt 100 mg/kg, rosiglitazone 5 mg/kg”, the “% decrease in AUC vs control” value was −19.6%. Besides, the “Glycaemia R under the curve (AUC)” value (OGTT, glucose 2 g/kg oral after 3 h fasting, 0-120 min, after 4 days of treatment PO bid, triazine salt 100 mg/kg, rosiglitazone 5 mg/kg) is 2688 +/− 99.
For `CN(CCOc1ccc(CC2SC(=O)NC2=O)cc1)c1ccccn1` (stereo not shown) [Rosiglitazone, rosiglitazone, reference compound], under setting [1], the “% variation vs control (glycaemia after 4 days of treatment)” value is recorded as −19.7% and the “Glycaemia after 4 days of treatment” value is 10.52 ± 0.84 mmol/L. Under “GK rats”, the Glycaemia before treatment came out at 12.81 ± 0.27 mmol/L.

Values taken from patent US8791115B2, “Combination of triazine derivatives and insulin sensitisers” (Poxel SAS, priority 2006, dated 2014).
